How the values were obtained:
Human KLK1 = Human KLK1 (Homo sapiens (Human), UniProt P06870); assay: Determination of the IC50 for KLK1 (fluorogenic substrate H-DVal-Leu-Arg-AFC); assay type: biochemical; conditions: human KLK1, 37° C.
Method in brief: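 Inhibition of human KLK1 (Callbiochem) was measured in vitro following standard published methods. The enzyme was incubated at 37° C. with the fluorogenic substrate H-DVal-Leu-Arg-AFC across a range of test compound concentrations. Residual activity, taken as the initial reaction rate, was followed by […], and IC50 values were calculated.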

Human plasma kallikrein = Human plasma kallikrein (Homo sapiens (Human), UniProt P03952); assay: Determination of the IC50 for plasma kallikrein (fluorogenic substrate H-DPro-Phe-Arg-AFC); assay type: biochemical; conditions: 37° C., read-out: IC50 (human PKal)
Chain of Human plasma kallikrein (P03952 391-638 limits assumed): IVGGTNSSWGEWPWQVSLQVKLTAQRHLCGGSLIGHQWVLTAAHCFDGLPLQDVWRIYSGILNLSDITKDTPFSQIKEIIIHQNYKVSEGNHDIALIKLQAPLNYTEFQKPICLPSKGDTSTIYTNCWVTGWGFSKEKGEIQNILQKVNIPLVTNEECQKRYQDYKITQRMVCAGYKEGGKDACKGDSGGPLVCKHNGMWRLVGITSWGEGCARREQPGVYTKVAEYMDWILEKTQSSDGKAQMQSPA
Chain of Human plasma kallikrein (P03952 20-390 partner limits assumed): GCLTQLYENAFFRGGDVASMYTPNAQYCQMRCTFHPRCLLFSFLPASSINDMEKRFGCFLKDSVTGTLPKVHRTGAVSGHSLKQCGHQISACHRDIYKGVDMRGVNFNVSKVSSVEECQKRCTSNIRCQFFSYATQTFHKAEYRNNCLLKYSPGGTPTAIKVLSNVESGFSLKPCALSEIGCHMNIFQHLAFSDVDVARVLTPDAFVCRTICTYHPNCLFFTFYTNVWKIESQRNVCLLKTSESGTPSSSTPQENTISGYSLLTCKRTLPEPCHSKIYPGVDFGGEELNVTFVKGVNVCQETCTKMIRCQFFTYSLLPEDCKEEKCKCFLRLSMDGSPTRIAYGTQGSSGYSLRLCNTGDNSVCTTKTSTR
Procedure: Determination of the IC50 Plasma Kallikrein Plasma kallikrein inhibitory activity in vitro was determined using standard published methods (see e.g. Johansen et al., Int. J. Tiss. […] Shori et al., Biochem. Pharmacol., 1992, 43, 1209; Stürzebecher et al., Biol. Chem. Hoppe-Seyler, 1992, 373, 1025). Human plasma kallikrein (Protogen) was incubated at 37° C. with the fluorogenic substrate […] and various concentrations of the test compound.

Chain of Human KLK1 (P06870 25-262): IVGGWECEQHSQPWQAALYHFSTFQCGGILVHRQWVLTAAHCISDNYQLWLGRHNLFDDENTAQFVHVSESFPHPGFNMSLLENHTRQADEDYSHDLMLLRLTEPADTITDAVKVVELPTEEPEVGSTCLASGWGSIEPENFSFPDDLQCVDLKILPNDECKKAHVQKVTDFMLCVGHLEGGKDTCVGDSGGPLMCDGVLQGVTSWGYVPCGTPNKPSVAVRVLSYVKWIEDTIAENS

Compound	IC50 (Human KLK1) [nM]	IC50 (Human plasma kallikrein) [nM]
CC1(C)CCCN1c1cc(Cc2cncc(C(=O)NCc3ccc4c(N)nccc4c3)c2)ccn1 [Example 84, N-[(1-Aminoisoquinolin-6-yl)methyl]-5-{[2-(2,2-dimethylpyrrolidin-1-yl)pyridin-4-yl]methyl}pyridine-3-carboxamide]	10700	683
Nc1nccc2cc(CNC(=O)c3cncc(Cc4ccnc(N5CCOCC5)c4)c3)ccc12 [Example 85, N-[(1-Aminoisoquinolin-6-yl)methyl]-5-{[2-(morpholin-4-yl)pyridin-4-yl]methyl}pyridine-3-carboxamide]	8540	1670
CN1CCN(c2cc(Cc3cncc(C(=O)NCc4ccc5c(N)nccc5c4)c3)ccn2)CC1 [Example 86, N-[(1-Aminoisoquinolin-6-yl)methyl]-5-{[2-(4-methylpiperazin-1-yl)pyridin-4-yl]methyl}pyridine-3-carboxamide]	4460	395
CCN(CC)c1cc(Cc2cncc(C(=O)NCc3ccc4c(N)nccc4c3)c2)ccn1 [Example 87, N-[(1-Aminoisoquinolin-6-yl)methyl]-5-{[2-(diethylamino)pyridin-4-yl]methyl}pyridine-3-carboxamide]	4980	358
COC1CCN(c2cc(Cc3cncc(C(=O)NCc4ccc5c(N)nccc5c4)c3)ccn2)C1 (centres unmarked) [Example 88, N-[(1-Aminoisoquinolin-6-yl)methyl]-5-{[2-(3-methoxypyrrolidin-1-yl)pyridin-4-yl]methyl}pyridine-3-carboxamide]	9850	234
Nc1nccc2cc(CNC(=O)c3cncc(Cc4ccnc(N5CCCC5CO)c4)c3)ccc12 (centres unmarked) [Example 89, N-[(1-Aminoisoquinolin-6-yl)methyl]-5-({2-[2-(hydroxymethyl)pyrrolidin-1-yl]pyridin-4-yl}methyl)pyridine-3-carboxamide]	4840	104
Cc1cnn(Cc2ccc(Cc3cncc(C(=O)NCc4ccc(CN)cc4C)c3)cc2)c1 [Example 93, N-{[4-(Aminomethyl)-2-methylphenyl]methyl}-5-({4-[(4-methylpyrazol-1-yl)methyl]phenyl}methyl)pyridine-3-carboxamide]	> 40000	14.4
Cc1cnn(Cc2ccc(Cc3cncc(C(=O)NCc4c(C)cc(CN)cc4C)c3)cc2)c1 [Example 94, N-{[4-(Aminomethyl)-2,6-dimethylphenyl]methyl}-5-({4-[(4-methylpyrazol-1-yl)methyl]phenyl}methyl)pyridine-3-carboxamide]	> 40000	7.47
Cc1cnn(Cc2ccc(Cc3cncc(C(=O)NCc4c(C)cc(CN)cc4C)n3)cc2)c1 [Example 95, N-{[4-(Aminomethyl)-2,6-dimethylphenyl]methyl}-6-({4-[(4-methylpyrazol-1-yl)methyl]phenyl}methyl)pyrazine-2-carboxamide]	> 40000	53.6
Cc1cnn(Cc2ccc(Cc3cncc(C(=O)NCc4ccc(CN)c(F)c4)c3)cc2)c1 [Example 96, N-{[4-(Aminomethyl)-3-fluorophenyl]methyl}-5-({4-[(4-methylpyrazol-1-yl)methyl]phenyl}methyl)pyridine-3-carboxamide]	> 40000	365
